Where only a bound is given, the exact number is not on record here.

In general, IC50 refers to the concentration that inhibits the measured activity by half.

MLK3, sequence (Q16584 whole entry): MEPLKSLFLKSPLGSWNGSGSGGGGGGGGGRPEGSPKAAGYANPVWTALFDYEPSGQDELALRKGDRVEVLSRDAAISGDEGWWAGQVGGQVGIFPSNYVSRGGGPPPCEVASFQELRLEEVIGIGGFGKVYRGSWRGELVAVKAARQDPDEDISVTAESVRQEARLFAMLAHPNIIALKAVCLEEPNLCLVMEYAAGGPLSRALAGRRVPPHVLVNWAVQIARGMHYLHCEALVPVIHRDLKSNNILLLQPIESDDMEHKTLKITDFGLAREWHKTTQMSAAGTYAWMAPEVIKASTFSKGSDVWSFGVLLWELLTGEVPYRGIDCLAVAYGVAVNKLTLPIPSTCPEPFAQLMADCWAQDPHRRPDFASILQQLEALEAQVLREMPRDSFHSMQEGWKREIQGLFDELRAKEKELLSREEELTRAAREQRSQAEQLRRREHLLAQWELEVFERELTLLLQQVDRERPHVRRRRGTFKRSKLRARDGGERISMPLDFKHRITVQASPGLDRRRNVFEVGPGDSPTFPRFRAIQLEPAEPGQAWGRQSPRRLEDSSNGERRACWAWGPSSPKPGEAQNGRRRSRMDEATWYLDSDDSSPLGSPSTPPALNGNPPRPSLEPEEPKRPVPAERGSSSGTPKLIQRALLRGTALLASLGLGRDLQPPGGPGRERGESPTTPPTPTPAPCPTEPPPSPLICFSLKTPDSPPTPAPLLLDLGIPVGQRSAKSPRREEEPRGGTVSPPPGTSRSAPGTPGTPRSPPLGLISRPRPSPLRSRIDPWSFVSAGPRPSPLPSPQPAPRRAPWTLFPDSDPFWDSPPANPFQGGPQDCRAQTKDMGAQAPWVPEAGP

In the first experiment the target is MLK3 (Homo sapiens (Human), UniProt Q16584). Description: Radiometric filter plate MLK3 assay. The experiment is classed as biochemical. The note with it: 2 μM cold ATP (Km), 1 μM inactive MKK7b, twenty minute incubation; read-out: MK3 IC50. On the procedure:
After a twenty minute incubation, the reactions were washed through filter plates and read on a scintillation counter. Results are shown in Table 9 below, in which +++ indicates ≤0.1 μM, ++ indicates >0.1 μM and ≤1 μM, and + indicates >1 μM.
As for `O=c1[nH]c2ncc(-c3ccncc3)nc2n1C1CCCC1` [Example 77, 1-cyclopentyl-6-(pyridin-4-yl)-1H-imidazo[4,5-b]pyrazin-2(3H)-one], the IC50 is more than 1000 nM.
Same read-out and setting: for `CC(=O)Nc1ccc(-c2cnc3[nH]cc(-c4ccc5[nH]ccc5c4)c3c2)cc1` [Example 3, N-(4-(3-(1H-indol-5-yl)-1H-pyrrolo[2,3-b]pyridin-5-yl)phenyl)acetamide] the value was less than 100 nM; for `CN(C)c1ccc(-c2cnc3[nH]cc(-c4ccc(F)c(Cl)c4)c3c2)cn1` [Example 22, 5-(3-(3-chloro-4-fluorophenyl)-1H-pyrrolo[2,3-b]pyridin-5-yl)-N,N-dimethylpyridin-2-amine], more than 1000 nM.
On the same count and under the same terms, for `COC(=O)N1CCN(Cc2ccc(-c3cnc4[nH]cc(-c5ccc6[nH]ccc6c5)c4c3)cc2)CC1` [Example 194] the value was less than 100 nM; for `O=c1[nH]c2ncc(-c3ccncc3)nc2n1-c1ccc2[nH]ccc2c1` [Example 44, 1-(1H-indol-5-yl)-6-(pyridin-4-yl)-1H-imidazo[4,5-b]pyrazin-2(3H)-one], more than 1000 nM; for `COc1cc(-c2cnc3[nH]cc(-c4ccc(CNC(C)=O)cc4)c3c2)cc(OC)c1OC` [Example 159, N-{4-[5-(3,4,5-Trimethoxy-phenyl)-1H-pyrrolo[2,3-b]pyridin-3-yl]-benzyl}-acetamide], less than 100 nM.
In the case of `c1cc2cc(-c3c[nH]c4ncc(-c5ccc(CN6CCOCC6)cc5)cc34)ccc2[nH]1` [Example 184, 4-(4-(3-(1H-indol-5-yl)-1H-pyrrolo[2,3-b]pyridin-5-yl)benzyl)morpholine], the IC50 is less than 100 nM.
On the same count and under the same terms, the figure for `COc1cc(-c2cnc3[nH]c(=O)n(-c4ccc5[nH]ccc5c4)c3n2)ccc1OCCN1CCOCC1` [Example 57, 1-(1H-indol-5-yl)-6-(3-methoxy-4-(2-morpholinoethoxy)phenyl)-1H-imidazo[4,5-b]pyrazin-2(3H)-one] is less than 100 nM; for `O=c1[nH]c2ncc(-c3ccc(O)cc3)nc2n1CC1CC1` [Example 81, 1-(cyclopropylmethyl)-6-(4-hydroxyphenyl)-1H-imidazo[4,5-b]pyrazin-2(3H)-one] it is more than 1000 nM.
Take `CC(=O)N1CCN(Cc2ccc(-c3cnc4[nH]cc(-c5ccc6[nH]ccc6c5)c4c3)cc2)CC1C` (centres unmarked) [Example 188, 1-(4-(4-(3-(1H-indol-5-yl)-1H-pyrrolo[2,3-b]pyridin-5-yl)benzyl)-2-methylpiperazin-1-yl)ethanone]: the IC50 was less than 100 nM.
Take `COc1ccc(-n2c(=O)[nH]c3ncc(-c4ccc(O)cc4)nc32)cc1` [Example 70, 6-(4-hydroxyphenyl)-1-(4-methoxyphenyl)-1H-imidazo[4,5-b]pyrazin-2(3H)-one]: the IC50 is more than 1000 nM.
Same read-out and setting: the figure for `CN(C)Cc1ccc(-c2cnc3[nH]cc(-c4ccc5[nH]ccc5c4)c3c2)cc1` [Example 33, 1-(4-(3-(1H-indol-5-yl)-1H-pyrrolo[2,3-b]pyridin-5-yl)phenyl)-N,N-dimethylmethanamine] is less than 100 nM; for `COc1cc(-c2cnc3c(c2)C(CC2CC2)C(=O)N3)cc(OC)c1OC` (centres unmarked) [Example 123, 3-(cyclopropylmethyl)-5-(3,4,5-trimethoxyphenyl)-1H-pyrrolo[2,3-b]pyridin-2(3H)-one] it is 100 to 1000 nM.
`COc1cc(-c2cnc3c(c2)C(=Cc2ccc(C#N)cc2)C(=O)N3)cc(OC)c1OC` [Example 133, 4-[2-oxo-5-(3,4,5-trimethoxy-phenyl)-1,2-dihydro-pyrrolo[2,3-b]pyridin-3-ylidenemethyl]-benzonitrile]: the IC50 was more than 1000 nM.
Still for that read-out and setting: for `O=c1[nH]c2ncc(-c3ccc(N4CCOCC4)cc3)nc2n1-c1ccc2scnc2c1` [Example 100, 1-(benzo[d]thiazol-5-yl)-6-(4-morpholinophenyl)-1H-imidazo[4,5-b]pyrazin-2(3H)-one] the value was more than 1000 nM; for `O=c1[nH]c2ncc(-c3ccncc3)nc2n1-c1ccc2[nH]ncc2c1` [Example 88, 1-(1H-indazol-5-yl)-6-(pyridin-4-yl)-1H-imidazo[4,5-b]pyrazin-2(3H)-one], more than 1000 nM.
On the same count and under the same terms, the figure for `COc1cc(-c2cnc3[nH]c(=O)n(-c4ccc(N5CCOCC5)nc4)c3n2)cc(OC)c1OC` [Example 109, 1-(6-morpholinopyridin-3-yl)-6-(3,4,5-trimethoxyphenyl)-1H-imidazo[4,5-b]pyrazin-2(3H)-one] is more than 1000 nM.
Still for that read-out and setting: for `CN1CCN(Cc2ccc(-c3cnc4[nH]cc(-c5ccc6[nH]ccc6c5)c4c3)cc2)CC1=O` [Example 141, 4-{4-[3-(1H-indol-5-yl)-1H-pyrrolo[2,3-b]pyridin-5-yl]-benzyl}-1-methyl-piperazin-2-one] the value was less than 100 nM.
Take `COc1cc(-c2cnc3[nH]cc(-c4ccc5[nH]ccc5c4)c3n2)ccc1N` [Example 38, 4-(7-(1H-indol-5-yl)-5H-pyrrolo[3,2-b]pyrazin-2-yl)-2-methoxyaniline]: the IC50 was less than 100 nM.
Same read-out and setting: the figure for `CC(C)(C)OC(=O)N1CCN(Cc2ccc(-c3cnc4[nH]cc(-c5ccc6[nH]ccc6c5)c4c3)cc2)CC1` [Example 144, 4-{4-[3-(1H-indol-5-yl)-1H-pyrrolo[2,3-b]pyridin-5-yl]-benzyl}-piperazine-1-carboxylic acid tert-butyl ester] is less than 100 nM; for `CN1CCN(Cc2ccc(-c3cnc4[nH]cc(-c5ccc(C(N)=O)cc5)c4c3)cc2)CC1=O` [Example 158, 4-{5-[4-(4-methyl-3-oxo-piperazin-1-ylmethyl)-phenyl]-1H-pyrrolo[2,3-b]pyridin-3-yl}-benzamide] it is less than 100 nM; for `CC(C)(C)OC(=O)N1CCN(C(=O)c2cccc(-c3cnc4[nH]cc(-c5ccc(C(N)=O)cc5)c4c3)c2)CC1` [Example 151, 4-{3-[3-(4-carbamoyl-phenyl)-1H-pyrrolo[2,3-b]pyridin-5-yl]-benzoyl}-piperazine-1-carboxylic acid tert-butyl ester] it is less than 100 nM.
In the case of `COc1cc(-c2cnc3[nH]cc(-c4ccc5[nH]ccc5c4)c3n2)ccc1OCCN1CCOCC1` [Example 39, 4-(2-(4-(7-(1H-indol-5-yl)-5H-pyrrolo[3,2-b]pyrazin-2-yl)-2-methoxyphenoxy)ethyl)morpholine], the IC50 was less than 100 nM.
Same read-out and setting: for `COc1cc(-c2cnc3c(c2)C(Cc2ccncc2)C(=O)N3)cc(OC)c1OC` (centres unmarked) [Example 136, 3-pyridin-4-ylmethyl-5-(3,4,5-trimethoxy-phenyl)-1,3-dihydro-pyrrolo[2,3-b]pyridin-2-one] the value was more than 1000 nM; for `O=c1[nH]c2ncc(-c3cc(F)c(O)c(F)c3)nc2n1-c1ccc2[nH]ccc2c1` [Example 59, 6-(3,5-difluoro-4-hydroxyphenyl)-1-(1H-indol-5-yl)-1H-imidazo[4,5-b]pyrazin-2(3H)-one], less than 100 nM; for `O=c1[nH]c2ncc(-c3ccc(O)cc3)nc2n1-c1ccc2cn[nH]c2c1` [Example 92, 6-(4-hydroxyphenyl)-1-(1H-indazol-6-yl)-1H-imidazo[4,5-b]pyrazin-2(3H)-one], more than 1000 nM.

Staying with this experiment, now noted: read-out: MK3 IC50.
With `CN1CCN(Cc2ccc(-c3cnc4[nH]cc(-c5ccc6[nH]ncc6c5)c4c3)cc2)CC1` [Example 173], the IC50 was in the range of 100 to 1000 nM.
The same measure, in the same setting: the figure for `CN1CCN(Cc2ccc(-c3cnc4[nH]cc(-c5ccc6scnc6c5)c4c3)cc2)CC1` [Example 175] is 100 to 1000 nM; for `Cc1cc2cc(-c3c[nH]c4ncc(-c5ccc(CN6CCN(C)CC6)cc5)cc34)ccc2[nH]1` [Example 172] it is 100 to 1000 nM.

Source of the values: patent US10485800B2, “Mixed lineage kinase inhibitors for HIV/AIDS therapies” (UNIVERSITY OF ROCHESTER, priority 2012, dated 2019).
